According to PubChem BioAssay (NCI):
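Assay format: 96-well plates, 48-hour exposure. GI50 = concentration required for 50% inhibition of growth. Definition used: TGI = concentration required for complete inhibition of growth.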

Tests used:
Assay in all cases: inhibition of tumour cell growth, NCI panel, 48 h
786-0 renal = system: 786-0 renal
NCI/ADR-RES ovarian = system: NCI/ADR-RES ovarian
HCT-116 colon = system: HCT-116 colon
A549 NSCLC = system: A549 NSCLC
MDA-MB-231 breast = system: MDA-MB-231 breast
HT29 colon = system: HT29 colon
SK-OV-3 ovarian = system: SK-OV-3 ovarian
SNB-19 CNS = system: SNB-19 CNS
NCI-H226 lung = system: NCI-H226 lung
K-562 leukemia = system: K-562 leukemia
UACC-62 melanoma = system: UACC-62 melanoma
SN12C renal = system: SN12C renal
BT-549 breast = system: BT-549 breast
SF-295 CNS = system: SF-295 CNS
EKVX NSCLC = system: EKVX NSCLC
MCF7 breast = system: MCF7 breast
HCT-15 colon = system: HCT-15 colon
SF-268 CNS = system: SF-268 CNS
ACHN renal = system: ACHN renal
MOLT-4 leukemia = system: MOLT-4 leukemia
CAKI-1 renal = system: CAKI-1 renal
SF-539 CNS = system: SF-539 CNS
RPMI-8226 leukemia = system: RPMI-8226 leukemia
SK-MEL-28 melanoma = system: SK-MEL-28 melanoma
NCI-H460 lung = system: NCI-H460 lung
A498 renal = system: A498 renal
HOP-92 NSCLC = system: HOP-92 NSCLC
OVCAR-8 ovarian = system: OVCAR-8 ovarian
T-47D breast = system: T-47D breast
COLO 205 colon = system: COLO 205 colon
SR leukemia = system: SR leukemia
PC-3 prostate = system: PC-3 prostate
UO-31 renal = system: UO-31 renal
KM12 colon = system: KM12 colon
HL-60(TB) leukemia = system: HL-60(TB) leukemia
U251 CNS = system: U251 CNS
SK-MEL-2 melanoma = system: SK-MEL-2 melanoma
HS 578T breast = system: HS 578T breast
OVCAR-5 ovarian = system: OVCAR-5 ovarian
LOX IMVI melanoma = system: LOX IMVI melanoma
RXF 393 renal = system: RXF 393 renal
M14 melanoma = system: M14 melanoma
UACC-257 melanoma = system: UACC-257 melanoma
CCRF-CEM leukemia = system: CCRF-CEM leukemia
DU-145 prostate = system: DU-145 prostate
NCI-H522 lung = system: NCI-H522 lung
HCC-2998 colon = system: HCC-2998 colon
SK-MEL-5 melanoma = system: SK-MEL-5 melanoma
NCI-H23 lung = system: NCI-H23 lung
HOP-62 NSCLC = system: HOP-62 NSCLC
IGROV1 ovarian = system: IGROV1 ovarian
MDA-MB-435 = system: MDA-MB-435
SW-620 colon = system: SW-620 colon
OVCAR-4 ovarian = system: OVCAR-4 ovarian
TK-10 renal = system: TK-10 renal

COc1ccc(C(=O)c2c(N)c(C#N)cn2-c2cccc(OC)c2)cc1
GI50 (786-0 renal): 4.64 µM
TGI (786-0 renal): > 100 µM
GI50 (NCI/ADR-RES ovarian): 2.35 µM
TGI (NCI/ADR-RES ovarian): > 100 µM
GI50 (HCT-116 colon): 3.5 µM
TGI (HCT-116 colon): > 100 µM
GI50 (A549 NSCLC): 5.84 µM
TGI (A549 NSCLC): > 100 µM
GI50 (MDA-MB-231 breast): 7.8 µM
TGI (MDA-MB-231 breast): > 100 µM
GI50 (HT29 colon): 2.64 µM
TGI (HT29 colon): 20.2 µM
GI50 (SK-OV-3 ovarian): 4.09 µM
TGI (SK-OV-3 ovarian): > 100 µM
GI50 (SNB-19 CNS): 3.92 µM
TGI (SNB-19 CNS): > 100 µM
GI50 (NCI-H226 lung): 4.5 µM
TGI (NCI-H226 lung): > 100 µM
GI50 (K-562 leukemia): 0.707 µM
TGI (K-562 leukemia): 8.57 µM
GI50 (UACC-62 melanoma): 3.22 µM
TGI (UACC-62 melanoma): > 100 µM
GI50 (SN12C renal): 5.64 µM
TGI (SN12C renal): > 100 µM
GI50 (BT-549 breast): 4.41 µM
TGI (BT-549 breast): > 100 µM
GI50 (SF-295 CNS): 2.9 µM
TGI (SF-295 CNS): > 100 µM
GI50 (EKVX NSCLC): 4.68 µM
TGI (EKVX NSCLC): > 100 µM
GI50 (MCF7 breast): 3.07 µM
TGI (MCF7 breast): > 100 µM
GI50 (HCT-15 colon): 2.49 µM
TGI (HCT-15 colon): > 100 µM
GI50 (SF-268 CNS): 5.65 µM
TGI (SF-268 CNS): > 100 µM
GI50 (ACHN renal): 6.52 µM
TGI (ACHN renal): > 100 µM
GI50 (MOLT-4 leukemia): 3.65 µM
TGI (MOLT-4 leukemia): 17.9 µM
GI50 (CAKI-1 renal): 3.2 µM
TGI (CAKI-1 renal): > 100 µM
GI50 (SF-539 CNS): 2.41 µM
TGI (SF-539 CNS): 8.52 µM
GI50 (RPMI-8226 leukemia): 2.94 µM
TGI (RPMI-8226 leukemia): 15.7 µM
GI50 (SK-MEL-28 melanoma): 49.8 µM
TGI (SK-MEL-28 melanoma): > 100 µM
GI50 (NCI-H460 lung): 3.41 µM
TGI (NCI-H460 lung): > 100 µM
GI50 (A498 renal): 2.73 µM
TGI (A498 renal): 7.8 µM
GI50 (HOP-92 NSCLC): 9.53 µM
TGI (HOP-92 NSCLC): > 100 µM
GI50 (OVCAR-8 ovarian): 5.3 µM
TGI (OVCAR-8 ovarian): > 100 µM
GI50 (T-47D breast): 3.72 µM
TGI (T-47D breast): > 100 µM
GI50 (COLO 205 colon): 3.01 µM
TGI (COLO 205 colon): 23 µM
GI50 (SR leukemia): 0.775 µM
TGI (SR leukemia): 14.4 µM
GI50 (PC-3 prostate): 3.75 µM
TGI (PC-3 prostate): > 100 µM
GI50 (UO-31 renal): 5.42 µM
TGI (UO-31 renal): > 100 µM
GI50 (KM12 colon): 4.17 µM
TGI (KM12 colon): > 100 µM
GI50 (HL-60(TB) leukemia): 2.01 µM
TGI (HL-60(TB) leukemia): 4.91 µM
GI50 (U251 CNS): 3.45 µM
TGI (U251 CNS): > 100 µM
GI50 (SK-MEL-2 melanoma): 4.58 µM
TGI (SK-MEL-2 melanoma): > 100 µM
GI50 (HS 578T breast): 2.42 µM
TGI (HS 578T breast): 8.66 µM
GI50 (OVCAR-5 ovarian): 7.36 µM
TGI (OVCAR-5 ovarian): > 100 µM
GI50 (LOX IMVI melanoma): 4.6 µM
TGI (LOX IMVI melanoma): > 100 µM
GI50 (RXF 393 renal): 2.05 µM
TGI (RXF 393 renal): 6.1 µM
GI50 (M14 melanoma): 2.51 µM
TGI (M14 melanoma): > 100 µM
GI50 (UACC-257 melanoma): 9.48 µM
TGI (UACC-257 melanoma): > 100 µM
GI50 (CCRF-CEM leukemia): 2.68 µM
TGI (CCRF-CEM leukemia): 9.83 µM
GI50 (DU-145 prostate): 4.7 µM
TGI (DU-145 prostate): > 100 µM
GI50 (NCI-H522 lung): 1.99 µM
TGI (NCI-H522 lung): 7.51 µM
GI50 (HCC-2998 colon): 4.98 µM
TGI (HCC-2998 colon): 97.4 µM
GI50 (SK-MEL-5 melanoma): 3.19 µM
TGI (SK-MEL-5 melanoma): 23.2 µM
GI50 (NCI-H23 lung): 5.61 µM
TGI (NCI-H23 lung): > 100 µM
GI50 (HOP-62 NSCLC): 4.12 µM
TGI (HOP-62 NSCLC): > 100 µM
GI50 (IGROV1 ovarian): 5 µM
TGI (IGROV1 ovarian): > 100 µM
GI50 (MDA-MB-435): 0.788 µM
TGI (MDA-MB-435): 4.49 µM
GI50 (SW-620 colon): 2.85 µM
TGI (SW-620 colon): > 100 µM
GI50 (OVCAR-4 ovarian): 18 µM
TGI (OVCAR-4 ovarian): > 100 µM
GI50 (TK-10 renal): 6.14 µM
TGI (TK-10 renal): > 100 µM
